Earlier results on one compound are cited in patent US20040186084A1, “Triamcinolone formulations and methods for their preparation and use” (Akorn, Inc., priority 2003, published 2004).

As to `CC1(C)O[C@@H]2C[C@H]3[C@@H]4CCC5=CC(=O)C=C[C@]5(C)[C@@]4(F)[C@@H](O)C[C@]3(C)[C@]2(C(=O)CO)O1` [triamcinolone acetonide, (11β,16α)-9-fluoro-11,21-dihydroxy-16,17-[1-methylethylidenebis(oxy)]pregna-1,-4-diene-3,20-dione], the “solubility in organic solvents” value (methanol, acetone and ethyle acetate) is “sparingly soluble”. In addition, the solubility in water result (water) is listed as “relatively insoluble”.
